Legend:
[1] = biological target: T1, Retinoic acid receptor gamma (RARg) (Homo sapiens, UniProt P13631); assay: RARg Transactivation Assay (GeneBLAzer RAR gamma-UAS-bla HEK 293T); assay type: cell-based; details: solution in DMSO at different concentrations
T1 construct: the UAS-driven beta-lactamase is the reporter
T1 sequence (P13631 185-419 limits assumed): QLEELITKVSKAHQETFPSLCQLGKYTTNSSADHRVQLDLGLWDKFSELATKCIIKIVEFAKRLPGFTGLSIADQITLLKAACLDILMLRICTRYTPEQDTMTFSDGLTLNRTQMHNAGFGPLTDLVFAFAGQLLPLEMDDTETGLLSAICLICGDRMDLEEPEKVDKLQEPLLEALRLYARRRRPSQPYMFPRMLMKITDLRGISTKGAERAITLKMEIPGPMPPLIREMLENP
Protocol: Retinoic acid receptor gamma (RARg) agonism was assessed using the Invitrogen GeneBLAzer RAR gamma-UAS-bla HEK 293T cell-based assay, in which activation of RARg results in transcription of beta lactamase. When a FRET probe is added to cells, FRET is observed. However, upon receptor activation and subsequent beta lactamase expression, the probe is cleaved and FRET is no longer observed.
Cells in culture are washed with PBS, trypsinized and resuspended in growth media, counted using ViCell cell counter; the appropriate amount of cells is then spun down and resuspended in assay buffer (at 0.5E6 cells/ml). 15 k cells in 30 ul assay buffer is plated per well in Greiner black walled, clear flat bottom plates using Combi dispenser. The last two columns are filled with assay buffer. […]
After 18-20 h of incubation, 8 ul FRET dye (Invitrogen K1096) is added using Tempest dispenser, after which plates are spun down at 800 rpm for 2 min without brakes and incubated in the dark at room temperature for 2 h. The bottom of the plates is cleaned using anti-static cleaning wipe before measuring fluorescence using BMG Pherastar plate reader (using FRET module, 10 reads, gain for both channels=1000, Ex 409, Em1 460, Em2 530). […]

[2] = test system: human epidermal skin equivalents; assay: Oleic acid induced hyperkeratinization in human epidermal skin equivalents; assay type: cell-based; details: for % Hyperkeratinization (normalized by 10% OA), Average / Stratum Corneum Thickness (% of Total Epidermis), Average: topical
Protocol: Human epidermal skin equivalents from MatTek Company (Ashland, MA, USA) were used. The skin equivalents were topically treated with 10% oleic acid (OA) either without or with the addition of 1 μM 3-(4-farnesyloxyphenyl)-propionic acid in a proprietary MatTek medium (pheno-red free, hydrocortisone free) for 48 hours. The epidermal skin equivalents were collected at the end of treatment and fixed in 10% neutral buffered formalin solution (Thermo Fisher Scientific, Hudson, NH, USA), dehydrated and embedded in paraffin. Tissue sections (5 μm thick) were cut and were stained with hematoxylin-eosin. Three pictures per section were taken for each skin equivalent. The thickness of the stratum cornea or epidermis was measured using ImagePro Plus (Media Cybernetics Inc., Rockville, MD, USA). The stratum corneum thickness was expressed as % of total epidermis (=thickness of stratum corneum divided by the sum of thicknesses of stratum corneum and epidermis). The % hyperkeratinizatin was normalized by the thickness of 10% OA-treated tissues. Statistical analysis was performed using two-tailed two-sample equal variance Student t test (Microsoft Office Excel 2007; Microsoft, Redmond, WA, USA).

[3] = 1 uM together with 10% oleic acid, 48 hours

## CC(C)=CCCC(C)=CCCC(C)=CCOc1ccc(CCC(=O)O)cc1 [3-(4-farnesyloxyphenyl)-propionic acid]
[1]
  EC50: 594 nM
[2]; [3]
  % Hyperkeratinization (normalized by 10% OA), Average: 76%
  Stratum Corneum Thickness (% of Total Epidermis), Average: 38%
[2]; 1 uM with 10% oleic acid, 48 hours, p<0.05
  oleic-acid (OA) induced hyperkeratinization (in words): significantly (p<0.05) reduced

## CCCCCCCC/C=C\CCCCCCCC(=O)O [oleic acid, reference compound]
[2]; 10% oleic acid alone, 48 hours
  Stratum Corneum Thickness (% of Total Epidermis), Average: 50%
[2]; 10% oleic acid alone, 48 hours (reference)
  % Hyperkeratinization (normalized by 10% OA), Average: 100%

Reference: patent US12377042B2, “Botanical and bacterial extracts displaying retinol-like activity” (KENVUE BRANDS LLC, priority 2018, dated 2025)
